# Results from patent publication US20260356819A1, “OXOISOINDOLINYL-SUBSTITUTED […] DERIVATIVE AND USE THEREOF” (GLUETACS THERAPEUTICS (SHANGHAI) CO., LTD., priority 2023, published 2026).
# pIC50: −log10 of the molar value.
# Tests used:
# [1] = molecular target: T1, IKZF2 (Homo sapiens, UniProt Q96SW2+Q9UKS7); test: Western blot degradation of IKZF2 in hPBMCs (24 h); format: cell-based; details: compounds at 50 nM and 500 nM
# T1 construct: The supernatant was aspirated as the extracted total cell protein; endogenous in cells; host or cells: human peripheral blood mononuclear cells (hPBMCs)
# T1 sequence (Q9UKS7 whole entry): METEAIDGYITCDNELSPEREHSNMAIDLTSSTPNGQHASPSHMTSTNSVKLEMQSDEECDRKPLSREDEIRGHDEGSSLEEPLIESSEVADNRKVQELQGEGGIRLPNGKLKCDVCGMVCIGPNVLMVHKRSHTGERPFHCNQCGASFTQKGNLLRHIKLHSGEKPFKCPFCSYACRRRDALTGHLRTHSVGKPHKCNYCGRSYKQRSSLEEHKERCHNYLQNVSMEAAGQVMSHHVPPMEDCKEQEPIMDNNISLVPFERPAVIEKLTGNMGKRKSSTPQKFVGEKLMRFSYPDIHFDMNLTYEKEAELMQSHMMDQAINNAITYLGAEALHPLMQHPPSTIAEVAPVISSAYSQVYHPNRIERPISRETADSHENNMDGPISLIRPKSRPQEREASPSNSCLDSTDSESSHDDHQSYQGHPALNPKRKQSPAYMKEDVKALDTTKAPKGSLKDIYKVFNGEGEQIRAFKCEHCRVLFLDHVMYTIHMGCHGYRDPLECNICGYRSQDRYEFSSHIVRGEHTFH
# T1 sequence (Q96SW2 whole entry): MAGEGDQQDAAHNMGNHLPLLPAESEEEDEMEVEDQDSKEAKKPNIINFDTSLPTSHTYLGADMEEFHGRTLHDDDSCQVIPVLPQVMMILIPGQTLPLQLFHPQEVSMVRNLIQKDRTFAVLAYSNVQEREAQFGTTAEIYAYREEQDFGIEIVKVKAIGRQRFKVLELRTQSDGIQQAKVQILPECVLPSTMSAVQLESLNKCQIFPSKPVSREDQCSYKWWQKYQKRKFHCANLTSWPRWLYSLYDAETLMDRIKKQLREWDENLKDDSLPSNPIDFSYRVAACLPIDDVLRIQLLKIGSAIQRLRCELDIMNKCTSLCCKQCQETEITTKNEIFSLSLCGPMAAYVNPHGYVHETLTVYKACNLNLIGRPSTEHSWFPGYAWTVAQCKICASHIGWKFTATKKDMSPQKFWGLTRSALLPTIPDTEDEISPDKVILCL
# T1 sequence (Q16531 whole entry partner): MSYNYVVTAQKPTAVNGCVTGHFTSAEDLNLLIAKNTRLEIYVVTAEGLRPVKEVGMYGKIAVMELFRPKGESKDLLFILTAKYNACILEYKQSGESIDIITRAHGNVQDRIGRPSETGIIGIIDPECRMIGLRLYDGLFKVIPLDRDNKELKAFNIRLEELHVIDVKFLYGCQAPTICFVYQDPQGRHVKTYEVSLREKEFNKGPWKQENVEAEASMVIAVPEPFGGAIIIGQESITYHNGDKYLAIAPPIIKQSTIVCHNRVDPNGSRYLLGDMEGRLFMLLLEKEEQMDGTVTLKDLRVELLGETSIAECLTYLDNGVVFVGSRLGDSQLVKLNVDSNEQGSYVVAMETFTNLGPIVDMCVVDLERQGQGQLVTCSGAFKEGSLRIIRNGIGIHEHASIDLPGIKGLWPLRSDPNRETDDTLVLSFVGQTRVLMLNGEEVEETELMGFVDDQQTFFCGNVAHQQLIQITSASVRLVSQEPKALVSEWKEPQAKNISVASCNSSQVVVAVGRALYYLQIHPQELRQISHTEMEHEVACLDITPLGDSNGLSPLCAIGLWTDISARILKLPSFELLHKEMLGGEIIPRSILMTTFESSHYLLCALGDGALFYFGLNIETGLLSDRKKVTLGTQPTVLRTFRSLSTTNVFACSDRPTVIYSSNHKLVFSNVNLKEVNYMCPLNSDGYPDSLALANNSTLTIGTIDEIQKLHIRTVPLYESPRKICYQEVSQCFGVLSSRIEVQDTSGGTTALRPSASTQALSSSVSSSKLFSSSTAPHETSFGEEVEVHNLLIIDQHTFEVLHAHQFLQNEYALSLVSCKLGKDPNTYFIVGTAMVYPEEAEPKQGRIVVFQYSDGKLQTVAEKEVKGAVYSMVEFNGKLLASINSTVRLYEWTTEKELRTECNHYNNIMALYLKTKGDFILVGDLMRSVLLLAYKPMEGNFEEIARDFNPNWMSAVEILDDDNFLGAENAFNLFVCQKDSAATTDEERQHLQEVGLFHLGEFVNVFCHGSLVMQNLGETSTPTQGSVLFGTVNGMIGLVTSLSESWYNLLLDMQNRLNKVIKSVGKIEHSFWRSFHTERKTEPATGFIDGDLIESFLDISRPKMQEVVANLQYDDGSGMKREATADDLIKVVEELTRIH
# In short: (§1)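 hPBMCs (1×10^6 cells/mL) exposed to compound at 50 nM and 500 nM for 24 h, DMSO as reference. Lysates run on SDS-PAGE and immunoblotted. Band grayscale normalized to internal control gives % protein remaining; DC50 from fitted concentration-response of band intensity versus DMSO.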
# [2] = molecular target: T2, IKZF3 (Homo sapiens, UniProt Q96SW2+Q9UKT9); test: Western blot degradation of IKZF3 in hPBMCs (24 h); format: cell-based; details: compounds at 50 nM and 500 nM
# T2 construct: The supernatant was aspirated as the extracted total cell protein; endogenous in cells; host or cells: human peripheral blood mononuclear cells (hPBMCs)
# T2 sequence (Q9UKT9 whole entry): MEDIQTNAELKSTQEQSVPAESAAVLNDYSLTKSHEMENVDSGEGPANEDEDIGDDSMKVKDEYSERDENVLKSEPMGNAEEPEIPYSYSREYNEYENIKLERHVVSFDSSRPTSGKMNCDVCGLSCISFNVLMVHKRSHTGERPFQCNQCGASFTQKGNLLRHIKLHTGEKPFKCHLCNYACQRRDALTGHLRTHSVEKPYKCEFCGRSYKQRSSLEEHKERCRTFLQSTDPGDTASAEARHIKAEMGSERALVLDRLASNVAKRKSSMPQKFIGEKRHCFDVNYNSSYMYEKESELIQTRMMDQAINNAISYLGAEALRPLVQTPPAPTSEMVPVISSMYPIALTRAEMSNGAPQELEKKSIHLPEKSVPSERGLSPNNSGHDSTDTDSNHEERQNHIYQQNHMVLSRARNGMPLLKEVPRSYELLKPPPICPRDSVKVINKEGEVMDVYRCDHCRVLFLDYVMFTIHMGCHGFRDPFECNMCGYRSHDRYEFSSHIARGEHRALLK
# T2 sequence (Q96SW2 whole entry): as the sequence (Q96SW2 whole entry) above
# T2 sequence (Q16531 whole entry partner): as the sequence (Q16531 whole entry partner) above
# In short: as §1
# [3] = molecular target: T3, IKZF1 (Homo sapiens, UniProt Q13422+Q96SW2); test: Western blot degradation of IKZF1 in hPBMCs (24 h); format: cell-based; details: compounds at 50 nM and 500 nM
# T3 construct: The supernatant was aspirated as the extracted total cell protein; endogenous in cells; host or cells: human peripheral blood mononuclear cells (hPBMCs)
# In short: as §1
# [4] = molecular target: T4, CK1α (Homo sapiens, UniProt P48729+Q96SW2); test: Western blot degradation of CK1α in hPBMCs (24 h); format: cell-based; details: compounds at 50 nM and 500 nM
# T4 construct: The supernatant was aspirated as the extracted total cell protein; endogenous in cells; host or cells: human peripheral blood mononuclear cells (hPBMCs)
# T4 sequence (P48729 whole entry): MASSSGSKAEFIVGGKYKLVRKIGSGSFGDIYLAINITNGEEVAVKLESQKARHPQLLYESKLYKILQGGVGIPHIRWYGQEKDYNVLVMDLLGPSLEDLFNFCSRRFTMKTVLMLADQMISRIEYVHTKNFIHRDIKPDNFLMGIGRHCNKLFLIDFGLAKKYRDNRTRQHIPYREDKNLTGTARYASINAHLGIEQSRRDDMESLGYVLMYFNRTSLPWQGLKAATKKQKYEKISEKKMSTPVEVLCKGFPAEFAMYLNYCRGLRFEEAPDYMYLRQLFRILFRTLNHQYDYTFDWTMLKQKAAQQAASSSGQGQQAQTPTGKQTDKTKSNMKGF
# T4 sequence (Q96SW2 whole entry): as the sequence (Q96SW2 whole entry) above
# T4 sequence (Q16531 whole entry partner): as the sequence (Q16531 whole entry partner) above
# In short: as §1
# [5] = test system: MM.1S cells; test: Inhibition of proliferation of multiple myeloma cells MM.1S (cell viability assay, 96 h); format: cell-based, human; details: read-out: inhibitory activity (IC50) against tumor cells proliferation, MM.1S
# Description: The tumor cells used herein were cultured in a cell culture medium listed in table 2 at 37 °C in an incubator with 5% CO2. Prior to experimentation, all cell lines used were correctly identified by STR profiling, and tested negative for Mycoplasma contamination using a Mycoplasma detection kit through routine screenings.
# The IC50 values of the compounds of the present disclosure (including the compounds in Table 1, and Examples 1-498) were determined using the CellTiter-Meiluncell Luminescent Cell Viability Assay Kit from Dalian Meilun Biotech Co., Ltd. The detailed procedure is as follows: Tumor cells were seeded in 96-well cell culture plates at the densities specified in Table 3. On the following day, the test compounds of the present disclosure were subjected to serial dilution. […] Subsequently, 0.5 μL of the test compound dilution was transferred into the 96-well plate containing the cells, with each well containing 100 μL of cell culture medium. […] Into the 96-well plate, the diluted test compounds and corresponding detection reagents were added, resulting in final test compound concentrations of 500 nM and 10 nM, respectively. The experimental procedure is described below using the diluted 2 μM test compound as an example.
# 0.5 μL of the aforementioned diluted compound of the present disclosure (including the compounds in Table 1, and Examples 1-498) was added to the seeded cells in 100 μL of medium, yielding a final test compound concentration of 10 nM. After the cells were treated with the compounds of the present disclosure for a specified period, the cell viability assay reagent was added to the culture medium according to the kit's instructions to determine cell viability. […] All controls were treated using the same procedure as the compounds of the present disclosure. The growth inhibition curves for the compounds of the present disclosure were plotted using Prism GraphPad software, and the IC50 values were calculated therefrom.
# [6] = molecular target: T5, GSPT1 (Homo sapiens, UniProt P15170+Q96SW2); test: Western blot degradation of GSPT1 in hPBMCs (24 h); format: cell-based; details: compounds at 50 nM and 500 nM
# T5 construct: The supernatant was aspirated as the extracted total cell protein; endogenous in cells; host or cells: human peripheral blood mononuclear cells (hPBMCs)
# T5 sequence (P15170 whole entry): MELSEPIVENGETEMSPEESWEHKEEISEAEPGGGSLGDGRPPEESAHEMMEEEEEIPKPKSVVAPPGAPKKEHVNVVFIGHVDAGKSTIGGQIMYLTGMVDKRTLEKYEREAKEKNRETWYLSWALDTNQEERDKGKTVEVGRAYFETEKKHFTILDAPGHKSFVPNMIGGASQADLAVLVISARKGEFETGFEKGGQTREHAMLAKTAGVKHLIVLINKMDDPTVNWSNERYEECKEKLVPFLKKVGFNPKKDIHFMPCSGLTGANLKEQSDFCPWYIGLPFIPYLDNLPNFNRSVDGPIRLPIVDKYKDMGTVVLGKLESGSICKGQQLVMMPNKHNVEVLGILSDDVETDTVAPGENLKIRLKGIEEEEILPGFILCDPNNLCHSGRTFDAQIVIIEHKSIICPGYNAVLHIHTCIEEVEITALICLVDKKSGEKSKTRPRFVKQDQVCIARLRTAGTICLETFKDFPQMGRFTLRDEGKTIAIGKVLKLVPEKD
# T5 sequence (Q96SW2 whole entry): as the sequence (Q96SW2 whole entry) above
# T5 sequence (Q16531 whole entry partner): as the sequence (Q16531 whole entry partner) above
# In short: as §1
# [7] = molecular target: T6, WEE1 (Homo sapiens, UniProt P30291+Q96SW2); test: Western blot degradation of WEE1 in hPBMCs (24 h); format: cell-based; details: compounds at 50 nM and 500 nM
# T6 construct: The supernatant was aspirated as the extracted total cell protein; endogenous in cells; host or cells: human peripheral blood mononuclear cells (hPBMCs)
# T6 sequence (P30291 whole entry): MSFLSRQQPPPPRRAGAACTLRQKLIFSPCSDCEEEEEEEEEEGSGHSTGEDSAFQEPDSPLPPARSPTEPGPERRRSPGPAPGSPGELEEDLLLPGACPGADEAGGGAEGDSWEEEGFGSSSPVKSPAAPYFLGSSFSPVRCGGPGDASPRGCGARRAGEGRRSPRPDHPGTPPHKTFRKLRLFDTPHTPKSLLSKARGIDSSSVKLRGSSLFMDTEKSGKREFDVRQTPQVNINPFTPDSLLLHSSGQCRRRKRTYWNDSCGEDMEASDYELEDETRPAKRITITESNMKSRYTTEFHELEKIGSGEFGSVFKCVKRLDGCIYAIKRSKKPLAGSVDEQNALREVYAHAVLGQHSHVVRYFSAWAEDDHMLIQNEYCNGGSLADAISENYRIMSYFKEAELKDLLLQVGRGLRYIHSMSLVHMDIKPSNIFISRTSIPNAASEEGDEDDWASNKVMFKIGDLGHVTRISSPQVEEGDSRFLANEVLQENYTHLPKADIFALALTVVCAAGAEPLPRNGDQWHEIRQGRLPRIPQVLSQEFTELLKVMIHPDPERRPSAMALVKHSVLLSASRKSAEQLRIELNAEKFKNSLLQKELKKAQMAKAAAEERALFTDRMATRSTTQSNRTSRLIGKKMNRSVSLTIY
# T6 sequence (Q96SW2 whole entry): as the sequence (Q96SW2 whole entry) above
# T6 sequence (Q16531 whole entry partner): as the sequence (Q16531 whole entry partner) above
# In short: as §1
SMILES,IKZF2 substrate protein remaining % [1],IKZF3 substrate protein remaining % [2],IKZF1 substrate protein remaining % [3],CK1α substrate protein remaining % [4],pIC50 [5],GSPT1 substrate protein remaining % [6],WEE1 substrate protein remaining % [7]
"Cc1ccc(Sc2ccccc2N2CCN(Cc3ccc4c(c3)CN(N3CCC(=O)NC3=O)C4=O)CC2)c(C)c1 [GT-04867, 1-(5-((4-(2-((2,4-dimethylphenyl)thio)phenyl)piperazin-1-yl)methyl)-1-oxoisoindolin-2-yl)dihydropyrimidine-2,4(1H,3H)-dione]",B (80%< substrate protein remaining % ≤100%),B (80%< substrate protein remaining % ≤100%),A (0% ≤ substrate protein remaining % ≤80%),B (80%< substrate protein remaining % ≤100%),6.00 to 6.30,A (0% ≤ substrate protein remaining % ≤80%),B (80%< substrate protein remaining % ≤100%)
"O=C1CCN(N2Cc3cc(CN4CC=C(c5ccoc5)CC4)ccc3C2=O)C(=O)N1 [GT-04875, 1-(5-((4-(furan-3-yl)-3,6-dihydropyridin-1(2H)-yl)methyl)-1-oxoisoindolin-2-yl)dihydropyrimidine-2,4(1H,3H)-dione]",B (80%< substrate protein remaining % ≤100%),B (80%< substrate protein remaining % ≤100%),B (80%< substrate protein remaining % ≤100%),B (80%< substrate protein remaining % ≤100%),6.30 to 6.52,A (0% ≤ substrate protein remaining % ≤80%),A (0% ≤ substrate protein remaining % ≤80%)
"O=C1CCN(N2Cc3cc(CN4CCN(C(c5ccc(F)cc5)c5ccc(F)cc5)CC4)ccc3C2=O)C(=O)N1 [GT-04894, 1-(5-((4-(bis(4-fluorophenyl)methyl)piperazin-1-yl)methyl)-1-oxoisoindolin-2-yl)dihydropyrimidine-2,4(1H,3H)-dione]",A (0% ≤ substrate protein remaining % ≤80%),B (80%< substrate protein remaining % ≤100%),A (0% ≤ substrate protein remaining % ≤80%),B (80%< substrate protein remaining % ≤100%),6.00 to 6.30,A (0% ≤ substrate protein remaining % ≤80%),A (0% ≤ substrate protein remaining % ≤80%)
"CC1(C)CCC(CN2CCN(Cc3ccc4c(c3)CN(N3CCC(=O)NC3=O)C4=O)CC2)=C(c2ccc(Cl)cc2)C1 [GT-04944, 1-(5-((4-((4′-chloro-5,5-dimethyl-3,4,5,6-tetrahydro-[1,1′-biphenyl]-2-yl)methyl)piperazin-1-yl)methyl)-1-oxoisoindolin-2-yl)dihydropyrimidine-2,4(1H,3H)-dione]",B (80%< substrate protein remaining % ≤100%),B (80%< substrate protein remaining % ≤100%),B (80%< substrate protein remaining % ≤100%),B (80%< substrate protein remaining % ≤100%),6.00 to 6.30,A (0% ≤ substrate protein remaining % ≤80%),B (80%< substrate protein remaining % ≤100%)
"O=C1CCN(N2Cc3cc(CN4CCN(c5cccc(Cl)n5)CC4)ccc3C2=O)C(=O)N1 [GT-05126, 1-(5-((4-(6-chloropyridin-2-yl)piperazin-1-yl)methyl)-1-oxoisoindolin-2-yl)dihydropyrimidine-2,4(1H,3H)-dione]",A (0% ≤ substrate protein remaining % ≤80%),A (0% ≤ substrate protein remaining % ≤80%),A (0% ≤ substrate protein remaining % ≤80%),A (0% ≤ substrate protein remaining % ≤80%),6.30 to 6.52,A (0% ≤ substrate protein remaining % ≤80%),A (0% ≤ substrate protein remaining % ≤80%)
"O=C1CCN(N2Cc3cc(CN4CCN(c5ccc(Cl)cn5)CC4)ccc3C2=O)C(=O)N1 [GT-05127, 1-(5-((4-(5-chloropyridin-2-yl)piperazin-1-yl)methyl)-1-oxoisoindolin-2-yl)dihydropyrimidine-2,4(1H,3H)-dione]",B (80%< substrate protein remaining % ≤100%),A (0% ≤ substrate protein remaining % ≤80%),A (0% ≤ substrate protein remaining % ≤80%),A (0% ≤ substrate protein remaining % ≤80%),6.00 to 6.30,A (0% ≤ substrate protein remaining % ≤80%),A (0% ≤ substrate protein remaining % ≤80%)
"N#Cc1ccc(N2CCN(Cc3ccc(COc4cccc5c4CN(N4CCC(=O)NC4=O)C5=O)cc3)CC2)c(F)c1 [GT-06132, 4-(4-(4-(((2-(2,4-dioxotetrahydropyrimidin-1(2H)-yl)-1-oxoisoindolin-4-yl)oxy)methyl)benzyl)piperazin-1-yl)-3-fluorobenzonitrile]",–,–,–,–,6.52 to 7.00,–,–
"O=C1CCN(N2C(=O)c3ccc(CN4CCN(c5nc(N6CCOCC6)nc6ccsc56)CC4)cc3C2=O)C(=O)N1 [GT-08455, 2-(2,4-dioxotetrahydropyrimidin-1(2H)-yl)-5-((4-(2-morpholinothieno[3,2-d]pyrimidin-4-yl)piperazin-1-yl)methyl)isoindoline-1,3-dione]",B (80%< substrate protein remaining % ≤100%),A (0% ≤ substrate protein remaining % ≤80%),B (80%< substrate protein remaining % ≤100%),A (0% ≤ substrate protein remaining % ≤80%),–,A (0% ≤ substrate protein remaining % ≤80%),B (80%< substrate protein remaining % ≤100%)
"Cc1nc(C2=CCN(Cc3ccc4c(c3)C(=O)N(N3CCC(=O)NC3=O)C4=O)CC2)c2c(-c3ccccc3)csc2n1 [GT-08484, 2-(2,4-dioxotetrahydropyrimidin-1(2H)-yl)-5-((4-(2-methyl-5-phenylthieno[2,3-d]pyrimidin-4-yl)-3,6-dihydropyridin-1(2H)-yl)methyl)isoindoline-1,3-dione]",A (0% ≤ substrate protein remaining % ≤80%),A (0% ≤ substrate protein remaining % ≤80%),A (0% ≤ substrate protein remaining % ≤80%),A (0% ≤ substrate protein remaining % ≤80%),–,A (0% ≤ substrate protein remaining % ≤80%),A (0% ≤ substrate protein remaining % ≤80%)
"O=C1CCN(N2Cc3cc(CN4CCN(c5nc(N6CCNCC6)c6sccc6n5)CC4)ccc3C2=O)C(=O)N1 [GT-08949, 1-(1-oxo-5-((4-(4-(piperazin-1-yl)thieno[3,2-d]pyrimidin-2-yl)piperazin-1-yl)methyl)isoindolin-2-yl)dihydropyrimidine-2,4(1H,3H)-dione]",B (80%< substrate protein remaining % ≤100%),B (80%< substrate protein remaining % ≤100%),B (80%< substrate protein remaining % ≤100%),B (80%< substrate protein remaining % ≤100%),–,A (0% ≤ substrate protein remaining % ≤80%),B (80%< substrate protein remaining % ≤100%)
